# Columns and labels:
# Format in all cases: biochemical
# [1] = target: T1, HIPK2 (Homo sapiens, UniProt Q9H2X6); test: HIPK2 kinase inhibition assay (33P-ATP, peptide […]); conditions: 20 µM ATP; in vitro
# T1 construct: The source of HIPK2 and of all of the other protein kinases used for specificity assays is as described elsewhere
# Procedure: The source of HIPK2 and of all of the other protein kinases used for specificity assays is as described elsewhere. […] The reaction was stopped by addition of 5 μl of 0.5 M orthophosphoric acid before spotting aliquots onto phosphocellulose filters. Filters were washed in 75 mM phosphoric acid (5-10 ml/each) four times and then once in methanol and dried before counting.
# [2] = target: BRK (Homo sapiens, UniProt Q13882); test: Kinase panel selectivity profiling; conditions: TBID 1 μM, 125 kinase panel, read-out: % activity of the enzyme
# From the text: (§1) The source of HIPK2 and of all of the other protein kinases used for specificity assays is as described elsewhere.
# (§2) Conditions for the activity assays of all other protein kinases tested in selectivity experiments are as described or referenced in [9].
# [3] = target: CK2 (Homo sapiens, UniProt P68400); test: Kinase panel selectivity profiling
# Sequence of CK2 (P68400 whole entry): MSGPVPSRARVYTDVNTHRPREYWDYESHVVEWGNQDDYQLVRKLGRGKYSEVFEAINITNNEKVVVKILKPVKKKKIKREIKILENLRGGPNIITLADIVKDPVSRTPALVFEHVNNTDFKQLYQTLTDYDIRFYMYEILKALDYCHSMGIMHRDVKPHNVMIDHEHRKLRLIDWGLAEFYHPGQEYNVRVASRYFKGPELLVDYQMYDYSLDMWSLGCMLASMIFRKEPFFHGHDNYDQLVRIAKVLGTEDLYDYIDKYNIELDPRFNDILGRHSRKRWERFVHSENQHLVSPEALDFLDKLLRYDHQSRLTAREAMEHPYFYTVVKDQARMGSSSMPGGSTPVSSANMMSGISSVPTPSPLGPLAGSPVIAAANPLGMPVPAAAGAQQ
# From the text: as §1, §2
# [4] = target: DYRK2 (Homo sapiens, UniProt Q92630); test: Kinase panel selectivity profiling; conditions: TBID 1 μM, 125 kinase panel, read-out: % activity of the enzyme
# From the text: as §1, §2
# [5] = target: T2, PIM1 (Homo sapiens, UniProt P11309); test: Kinase panel selectivity profiling
# T2 construct: The source of HIPK2 and of all of the other protein kinases used for specificity assays is as described elsewhere
# T2 sequence (P11309 whole entry, species assumed): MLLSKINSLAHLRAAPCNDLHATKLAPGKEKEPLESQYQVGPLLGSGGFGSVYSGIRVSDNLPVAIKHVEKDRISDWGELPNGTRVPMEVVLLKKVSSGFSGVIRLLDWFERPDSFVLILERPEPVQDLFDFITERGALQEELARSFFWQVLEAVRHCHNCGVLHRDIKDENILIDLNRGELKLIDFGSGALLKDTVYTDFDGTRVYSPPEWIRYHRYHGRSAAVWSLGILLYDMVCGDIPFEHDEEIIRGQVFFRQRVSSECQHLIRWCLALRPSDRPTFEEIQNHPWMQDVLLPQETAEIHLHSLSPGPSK
# From the text: as §1, §2
# [6] = target: GSK3b (Homo sapiens, UniProt P49841); test: Kinase panel selectivity profiling; conditions: TBID 1 μM, 125 kinase panel, read-out: % activity of the enzyme
# From the text: as §1, §2
# [7] = target: EPH-B2 (Homo sapiens, UniProt P29323); test: Kinase panel selectivity profiling; conditions: TBID 1 μM, 125 kinase panel, read-out: % activity of the enzyme
# From the text: as §1, §2
# [8] = target: MST2 (Homo sapiens, UniProt Q13188); test: Kinase panel selectivity profiling; conditions: TBID 1 μM, 125 kinase panel, read-out: % activity of the enzyme
# From the text: as §1, §2
# [9] = target: p38b MAPK (Homo sapiens, UniProt Q15759); test: Kinase panel selectivity profiling; conditions: TBID 1 μM, 125 kinase panel, read-out: % activity of the enzyme
# From the text: as §1, §2
# [10] = target: IR (Homo sapiens, UniProt P06213); test: Kinase panel selectivity profiling; conditions: TBID 1 μM, 125 kinase panel, read-out: % activity of the enzyme
# From the text: as §1, §2
# [11] = target: FGF-R1 (Homo sapiens, UniProt P11362); test: Kinase panel selectivity profiling; conditions: TBID 1 μM, 125 kinase panel, read-out: % activity of the enzyme
# From the text: as §1, §2
# [12] = target: ERK2 (Homo sapiens, UniProt P28482); test: Kinase panel selectivity profiling; conditions: TBID 1 μM, 125 kinase panel, read-out: % activity of the enzyme
# From the text: as §1, §2
# [13] = target: S6K1 (Homo sapiens, UniProt P23443); test: Kinase panel selectivity profiling; conditions: TBID 1 μM, 125 kinase panel, read-out: % activity of the enzyme
# From the text: as §1, §2
# [14] = target: MNK2 (Homo sapiens, UniProt Q9HBH9); test: Kinase panel selectivity profiling; conditions: TBID 1 μM, 125 kinase panel, read-out: % activity of the enzyme
# From the text: as §1, §2
# [15] = target: PRK2 (Homo sapiens, UniProt Q16513); test: Kinase panel selectivity profiling; conditions: TBID 1 μM, 125 kinase panel, read-out: % activity of the enzyme
# From the text: as §1, §2
# [16] = target: DYRK3 (Homo sapiens, UniProt O43781); test: Kinase panel selectivity profiling; conditions: TBID 1 μM, 125 kinase panel, read-out: % activity of the enzyme
# Sequence of DYRK3 (O43781 whole entry): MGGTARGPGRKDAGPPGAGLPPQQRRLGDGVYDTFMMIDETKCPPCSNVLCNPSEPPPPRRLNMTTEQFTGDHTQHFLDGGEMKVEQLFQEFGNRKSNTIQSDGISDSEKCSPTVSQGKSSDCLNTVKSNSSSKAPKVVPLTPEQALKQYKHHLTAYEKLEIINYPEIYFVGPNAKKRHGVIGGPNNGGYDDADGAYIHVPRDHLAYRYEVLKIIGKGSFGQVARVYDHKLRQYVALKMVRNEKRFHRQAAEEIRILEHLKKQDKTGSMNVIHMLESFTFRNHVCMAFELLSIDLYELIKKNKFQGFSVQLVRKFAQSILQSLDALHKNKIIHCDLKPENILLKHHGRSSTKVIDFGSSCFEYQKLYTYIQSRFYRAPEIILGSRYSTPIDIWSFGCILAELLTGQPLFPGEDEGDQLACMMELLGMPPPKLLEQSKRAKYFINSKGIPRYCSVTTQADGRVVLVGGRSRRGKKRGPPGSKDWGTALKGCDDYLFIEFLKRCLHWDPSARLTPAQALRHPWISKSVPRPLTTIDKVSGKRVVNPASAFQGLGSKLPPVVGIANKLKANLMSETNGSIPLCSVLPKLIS
# From the text: as §1, §2
# [17] = target: MARK1 (Homo sapiens, UniProt Q9P0L2); test: Kinase panel selectivity profiling; conditions: TBID 1 μM, 125 kinase panel, read-out: % activity of the enzyme
# From the text: as §1, §2
# [18] = target: DAPK1 (Homo sapiens, UniProt P53355); test: Kinase panel selectivity profiling; conditions: TBID 1 μM, 125 kinase panel, read-out: % activity of the enzyme
# From the text: as §1, §2
# [19] = target: MEKK1 (Homo sapiens, UniProt Q13233); test: Kinase panel selectivity profiling; conditions: TBID 1 μM, 125 kinase panel, read-out: % activity of the enzyme
# From the text: as §1, §2
# [20] = target: EPH-B1 (Homo sapiens, UniProt P54762); test: Kinase panel selectivity profiling; conditions: TBID 1 μM, 125 kinase panel, read-out: % activity of the enzyme
# From the text: as §1, §2
# [21] = target: CLK2 (Homo sapiens, UniProt P49760); test: Kinase panel selectivity profiling; conditions: TBID 1 μM, 125 kinase panel, read-out: % activity of the enzyme
# From the text: as §1, §2
# [22] = target: CAMKKb (Homo sapiens, UniProt Q96RR4); test: Kinase panel selectivity profiling
# Sequence of CAMKKb (Q96RR4 whole entry): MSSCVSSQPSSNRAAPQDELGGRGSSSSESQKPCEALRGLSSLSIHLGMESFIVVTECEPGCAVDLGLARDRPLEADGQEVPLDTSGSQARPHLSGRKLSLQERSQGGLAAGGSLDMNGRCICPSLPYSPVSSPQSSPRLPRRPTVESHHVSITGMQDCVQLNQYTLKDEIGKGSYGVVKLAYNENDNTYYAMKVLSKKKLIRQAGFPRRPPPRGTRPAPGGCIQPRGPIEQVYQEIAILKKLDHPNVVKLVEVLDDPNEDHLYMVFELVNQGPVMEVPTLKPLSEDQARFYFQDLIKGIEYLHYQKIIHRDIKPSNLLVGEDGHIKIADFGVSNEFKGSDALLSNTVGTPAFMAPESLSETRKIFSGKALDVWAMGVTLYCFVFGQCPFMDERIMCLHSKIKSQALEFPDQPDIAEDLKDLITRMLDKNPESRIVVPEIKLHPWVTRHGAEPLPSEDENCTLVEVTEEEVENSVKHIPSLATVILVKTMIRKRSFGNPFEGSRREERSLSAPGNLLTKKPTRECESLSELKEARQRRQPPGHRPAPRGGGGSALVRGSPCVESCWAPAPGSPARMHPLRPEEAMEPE
# From the text: as §1, §2
# [23] = target: PKBb (Homo sapiens, UniProt P31751); test: Kinase panel selectivity profiling; conditions: TBID 1 μM, 125 kinase panel, read-out: % activity of the enzyme
# From the text: as §1, §2
# [24] = target: STK33 (Homo sapiens, UniProt Q9BYT3); test: Kinase panel selectivity profiling; conditions: TBID 1 μM, 125 kinase panel, read-out: % activity of the enzyme
# From the text: as §1, §2
# [25] = target: MAPKAP-K2 (Homo sapiens, UniProt P49137); test: Kinase panel selectivity profiling; conditions: TBID 1 μM, 125 kinase panel, read-out: % activity of the enzyme
# From the text: as §1, §2
# [26] = target: EPH-A4 (Homo sapiens, UniProt P54764); test: Kinase panel selectivity profiling; conditions: TBID 1 μM, 125 kinase panel, read-out: % activity of the enzyme
# From the text: as §1, §2
# [27] = target: MARK2 (Homo sapiens, UniProt Q7KZI7); test: Kinase panel selectivity profiling; conditions: TBID 1 μM, 125 kinase panel, read-out: % activity of the enzyme
# From the text: as §1, §2
# [28] = target: SmMLCK (Homo sapiens, UniProt Q15746); test: Kinase panel selectivity profiling; conditions: TBID 1 μM, 125 kinase panel, read-out: % activity of the enzyme
# From the text: as §1, §2
# [29] = target: MARK3 (Homo sapiens, UniProt P27448); test: Kinase panel selectivity profiling; conditions: TBID 1 μM, 125 kinase panel, read-out: % activity of the enzyme
# From the text: as §1, §2
# [30] = target: ERK1 (Homo sapiens, UniProt P27361); test: Kinase panel selectivity profiling; conditions: TBID 1 μM, 125 kinase panel, read-out: % activity of the enzyme
# From the text: as §1, §2
# [31] = target: MELK (Homo sapiens, UniProt Q14680); test: Kinase panel selectivity profiling; conditions: TBID 1 μM, 125 kinase panel, read-out: % activity of the enzyme
# From the text: as §1, §2
# [32] = target: PKA (Homo sapiens, UniProt P17612); test: Kinase panel selectivity profiling; conditions: TBID 1 μM, 125 kinase panel, read-out: % activity of the enzyme
# From the text: as §1, §2
# [33] = target: RSK1 (Homo sapiens, UniProt Q15418); test: Kinase panel selectivity profiling; conditions: TBID 1 μM, 125 kinase panel, read-out: % activity of the enzyme
# From the text: as §1, §2
# [34] = target: PAK2 (Homo sapiens, UniProt Q13177); test: Kinase panel selectivity profiling; conditions: TBID 1 μM, 125 kinase panel, read-out: % activity of the enzyme
# From the text: as §1, §2
# [35] = target: TTBK1 (Homo sapiens, UniProt Q5TCY1); test: Kinase panel selectivity profiling; conditions: TBID 1 μM, 125 kinase panel, read-out: % activity of the enzyme
# Sequence of TTBK1 (Q5TCY1 whole entry): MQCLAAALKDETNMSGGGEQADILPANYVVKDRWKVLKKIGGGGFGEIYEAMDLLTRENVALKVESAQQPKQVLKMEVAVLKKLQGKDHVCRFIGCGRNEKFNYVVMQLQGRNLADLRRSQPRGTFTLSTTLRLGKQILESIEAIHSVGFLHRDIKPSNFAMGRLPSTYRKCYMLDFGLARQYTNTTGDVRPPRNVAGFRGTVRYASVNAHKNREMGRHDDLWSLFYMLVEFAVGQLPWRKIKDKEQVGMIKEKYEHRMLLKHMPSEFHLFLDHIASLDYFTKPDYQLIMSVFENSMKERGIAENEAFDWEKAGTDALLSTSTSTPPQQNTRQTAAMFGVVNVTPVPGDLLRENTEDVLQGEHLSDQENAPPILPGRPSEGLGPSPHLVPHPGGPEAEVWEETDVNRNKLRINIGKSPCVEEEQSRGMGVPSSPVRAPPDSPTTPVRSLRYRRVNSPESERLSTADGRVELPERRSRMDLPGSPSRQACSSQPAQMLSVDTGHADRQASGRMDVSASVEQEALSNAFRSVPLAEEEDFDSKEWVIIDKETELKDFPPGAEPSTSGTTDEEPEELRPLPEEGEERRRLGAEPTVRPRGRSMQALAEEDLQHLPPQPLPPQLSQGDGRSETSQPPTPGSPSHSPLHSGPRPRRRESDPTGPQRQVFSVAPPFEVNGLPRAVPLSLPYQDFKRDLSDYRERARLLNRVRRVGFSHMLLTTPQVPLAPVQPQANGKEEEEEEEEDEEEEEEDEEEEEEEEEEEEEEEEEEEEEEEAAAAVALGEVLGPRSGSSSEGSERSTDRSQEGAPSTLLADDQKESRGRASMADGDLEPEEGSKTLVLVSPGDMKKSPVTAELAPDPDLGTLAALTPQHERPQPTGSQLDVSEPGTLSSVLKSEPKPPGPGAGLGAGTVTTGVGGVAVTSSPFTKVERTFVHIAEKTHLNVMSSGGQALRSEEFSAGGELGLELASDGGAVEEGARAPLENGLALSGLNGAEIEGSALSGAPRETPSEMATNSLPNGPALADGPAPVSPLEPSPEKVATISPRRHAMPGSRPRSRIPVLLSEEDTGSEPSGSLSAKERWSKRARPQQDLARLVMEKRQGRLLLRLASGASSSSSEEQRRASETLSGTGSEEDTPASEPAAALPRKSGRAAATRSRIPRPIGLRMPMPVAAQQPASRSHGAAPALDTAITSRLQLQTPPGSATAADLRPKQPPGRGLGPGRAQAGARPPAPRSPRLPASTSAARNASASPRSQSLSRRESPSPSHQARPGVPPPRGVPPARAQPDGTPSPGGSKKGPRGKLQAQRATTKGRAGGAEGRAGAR
# From the text: as §1, §2
# [36] = target: MNK1 (Homo sapiens, UniProt Q9BUB5); test: Kinase panel selectivity profiling; conditions: TBID 1 μM, 125 kinase panel, read-out: % activity of the enzyme
# From the text: as §1, §2
# [37] = target: TBK1 (Homo sapiens, UniProt Q9UHD2); test: Kinase panel selectivity profiling; conditions: TBID 1 μM, 125 kinase panel, read-out: % activity of the enzyme
# From the text: as §1, §2
# [38] = target: ERK8 (Homo sapiens, UniProt Q8TD08); test: Kinase panel selectivity profiling; conditions: TBID 1 μM, 125 kinase panel, read-out: % activity of the enzyme
# Sequence of ERK8 (Q8TD08 whole entry): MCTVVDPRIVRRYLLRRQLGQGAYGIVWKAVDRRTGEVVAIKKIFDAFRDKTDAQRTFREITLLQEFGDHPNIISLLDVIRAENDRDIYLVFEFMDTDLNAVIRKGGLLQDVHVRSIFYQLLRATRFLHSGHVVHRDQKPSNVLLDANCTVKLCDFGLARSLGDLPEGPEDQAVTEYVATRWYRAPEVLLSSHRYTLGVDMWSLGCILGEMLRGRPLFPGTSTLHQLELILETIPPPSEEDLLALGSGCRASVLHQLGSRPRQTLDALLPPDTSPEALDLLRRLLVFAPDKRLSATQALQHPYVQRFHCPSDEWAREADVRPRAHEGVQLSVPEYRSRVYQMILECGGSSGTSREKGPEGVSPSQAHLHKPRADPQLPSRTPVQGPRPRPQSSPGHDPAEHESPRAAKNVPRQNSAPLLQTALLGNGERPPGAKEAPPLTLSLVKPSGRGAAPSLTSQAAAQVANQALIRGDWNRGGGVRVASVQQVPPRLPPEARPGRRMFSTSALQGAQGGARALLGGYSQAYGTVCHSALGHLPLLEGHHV
# From the text: as §1, §2
# [39] = target: TAO1 (Homo sapiens, UniProt Q7L7X3); test: Kinase panel selectivity profiling; conditions: TBID 1 μM, 125 kinase panel, read-out: % activity of the enzyme
# From the text: as §1, §2
# [40] = 10 µM TBID, panel of 76 protein kinases, read-out: residual activity
# [41] = TBID 1 μM, 125 kinase panel, read-out: % activity of the enzyme
# T1 sequence (Q9H2X6 whole entry): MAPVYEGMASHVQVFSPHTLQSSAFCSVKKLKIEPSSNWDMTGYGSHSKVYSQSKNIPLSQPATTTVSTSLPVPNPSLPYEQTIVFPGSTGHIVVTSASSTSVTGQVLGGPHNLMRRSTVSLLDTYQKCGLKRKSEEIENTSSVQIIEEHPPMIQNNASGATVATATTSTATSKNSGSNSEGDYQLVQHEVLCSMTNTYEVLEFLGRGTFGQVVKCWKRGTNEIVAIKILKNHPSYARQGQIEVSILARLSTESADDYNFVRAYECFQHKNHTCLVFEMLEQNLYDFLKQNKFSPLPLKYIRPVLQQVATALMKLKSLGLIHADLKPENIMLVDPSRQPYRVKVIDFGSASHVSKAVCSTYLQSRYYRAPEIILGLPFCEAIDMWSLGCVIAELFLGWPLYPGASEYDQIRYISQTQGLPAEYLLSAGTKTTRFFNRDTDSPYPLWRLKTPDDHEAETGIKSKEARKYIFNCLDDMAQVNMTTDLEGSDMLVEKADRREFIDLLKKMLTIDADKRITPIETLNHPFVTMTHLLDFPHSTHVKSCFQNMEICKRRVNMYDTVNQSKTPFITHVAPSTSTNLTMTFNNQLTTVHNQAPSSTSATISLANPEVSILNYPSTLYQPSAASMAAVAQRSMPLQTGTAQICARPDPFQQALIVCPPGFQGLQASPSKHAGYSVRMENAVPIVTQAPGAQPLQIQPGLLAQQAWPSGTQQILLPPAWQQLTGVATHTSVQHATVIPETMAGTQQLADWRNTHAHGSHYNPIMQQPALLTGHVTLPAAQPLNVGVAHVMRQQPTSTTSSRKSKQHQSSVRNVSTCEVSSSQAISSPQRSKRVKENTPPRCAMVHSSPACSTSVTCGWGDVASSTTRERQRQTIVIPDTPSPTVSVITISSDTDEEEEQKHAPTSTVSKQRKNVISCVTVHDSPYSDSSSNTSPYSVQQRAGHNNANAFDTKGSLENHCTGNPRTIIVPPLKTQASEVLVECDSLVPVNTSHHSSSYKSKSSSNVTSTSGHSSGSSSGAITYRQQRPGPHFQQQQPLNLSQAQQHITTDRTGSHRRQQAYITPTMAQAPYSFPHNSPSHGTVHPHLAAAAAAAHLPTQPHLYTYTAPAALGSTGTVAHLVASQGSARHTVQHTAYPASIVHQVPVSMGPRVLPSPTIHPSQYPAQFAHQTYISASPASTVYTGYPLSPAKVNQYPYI
smiles,measurement,setting,value
"O=C1c2c(Br)c(Br)c(Br)c(Br)c2C(=O)N1c1ncc[nH]1 [TBID, 4,5,6,7-Tetrabromo-2-(1H-imidazol-2-yl)isoindoline-1,3-dione]",IC50,[1],330 nM
same,activity at 1 µM,[2],103%
same,remaining activity at 10 µM,[3]; [40],48%
same,activity at 1 µM,[3]; [41],87%
same,activity at 1 µM,[4],94%
same,residual activity,"[5]; 10 µM TBID, panel of 76 protein kinases",entirely unaffected
same,activity at 1 µM,[5]; [41],104%
same,activity at 1 µM,[6],94%
same,activity at 1 µM,[7],108%
same,activity at 1 µM,[8],90%
same,activity at 1 µM,[9],111%
same,activity at 1 µM,[10],101%
same,activity at 1 µM,[11],104%
same,activity at 1 µM,[12],91%
same,activity at 1 µM,[13],94%
same,activity at 1 µM,[14],113%
same,activity at 1 µM,[15],96%
same,activity at 1 µM,[16],101%
same,activity at 1 µM,[17],102%
same,activity at 1 µM,[18],92%
same,activity at 1 µM,[19],106%
same,activity at 1 µM,[20],96%
same,activity at 1 µM,[21],101%
same,remaining activity at 10 µM,[22]; [40],34%
same,activity at 1 µM,[22]; [41],75%
same,activity at 1 µM,[23],104%
same,activity at 1 µM,[24],111%
same,activity at 1 µM,[25],119%
same,activity at 1 µM,[26],100%
same,activity at 1 µM,[27],100%
same,activity at 1 µM,[28],103%
same,activity at 1 µM,[29],115%
same,activity at 1 µM,[30],98%
same,activity at 1 µM,[31],110%
same,activity at 1 µM,[32],104%
same,activity at 1 µM,[33],93%
same,activity at 1 µM,[34],97%
same,activity at 1 µM,[35],113%
same,activity at 1 µM,[36],106%
same,activity at 1 µM,[37],108%
same,activity at 1 µM,[38],95%
same,activity at 1 µM,[39],110%
